Measured values reported in patent US9004752B2, “Method for evaluating the solubility of a crystalline substance in a polymer” (Abbvie, Inc., priority 2008, dated 2015).

Key:
[1] = DSC dissolution-endpoint method (Method I): solubility of a crystalline substance in a polymer; settings: for solubility in PVP: by extrapolation
Experimental: In a typical procedure, 0.5-1 g of solute/polymer powder was milled at 10 Hz. Each cycle of milling was 2 min, followed by a 2 min cool-down. The cycle was repeated to achieve a desired milling time (16-60 min).
Standard and modulated differential scanning calorimetry (DSC) was conducted in hermetic aluminium pans using a TA Instruments DSC Q1000. 5-10 mg of the sample was packed into the pans. A pin hole was made in the lid to allow the escape of moisture. Standard DSC was performed at heating rates from 0.1 to 3° C./min. Modulated DSC was used to observe the glass transition of the amorphous phase at a heating rate of 2° C./min with the temperature modulating at ±0.5° C. every 60 second.
To further minimize the effect of slow dissolution on the measurement of equilibrium solubility, we measured Tend at several heating rates (FIG. 3) and obtained the Tend at zero heating rate by extrapolation (FIG. 4).
The larger the difference (Tend−Tg), the lower the viscosity of the solution in which D-mannitol completed its dissolution. […] For such systems, Tend changed rapidly and non-linearly with the heating rate, making the extrapolation to zero heating rate less certain. […] Despite this limitation the method enabled us to get sufficiently close to Tg to estimate the solubility of D-mannitol in PVP at Tg: by extrapolation. […] At 95° C., the saturated solution exists at the glass transition temperature.
As in the case of D-mannitol/PVP, cryomilling was used to prepare drug/polymer mixtures. […] As in the case of the D-mannitol/PVP, cryomilling facilitated the determination of dissolution endpoint.

[2] = assay type: physicochemical; settings: 30% w/w in PVP, initially amorphous, yielded crystals
Experimental: To set up an aging experiment, the sample was added into an open DSC pan and heated up on a microscope hot-stage (Linkam THMS 600) to Tm+20° C. under vacuum. The application of vacuum removed air bubbles trapped in the viscous melt. The pan was then quenched to room temperature, sealed immediately, and aged in an oven of known temperature.
To verify the solubility of D-mannitol in PVP obtained with the DSC method (Method I), we used two other solubility-indicating methods (FIG. 7). In the first (Method II), D-mannitol was mixed with PVP at a concentration higher than predicted. The mixture was then aged to see whether the supersaturated solution indeed crystallized over time. We tracked three indicators of crystallization: (a) the glass transition temperature Tg of the mixture, which is expected to increase when D-mannitol is removed from its mixture with PVP (FIG. 5); (b) the appearance of new endotherms with aging which correspond to the dissolution of newly crystallized D-mannitol; and (c) new crystals observable by polarized light microscopy. Modulated DSC (MDSC) was used to measure Tg. In the second method (Method III), D-mannitol was mixed with PVP at high enough concentration so that D-mannitol rapidly crystallized. […]
For Method II, D-mannitol was mixed with PVP by cryogenic milling at 30% w/w. […] The mixture was analyzed by DSC at times ranging from a few days to 155 days. […]

## OC[C@@H](O)[C@@H](O)[C@H](O)[C@H](O)CO [D-mannitol]
[1]; 105° C., temperature chosen for the validation tests
  predicted solubility in PVP (Method I): 15%
[1]; PVP K15, […]
  solubility in PVP: 15 % w/w
[1]; PVP K15, at 95° C., […]
  solubility in PVP: 10 % w/w
[2]
  state of the 30% solution in PVP on aging: supersaturated
